Experimental data: patent publication US7419780B2, “Methods and assays for screening protein targets” (The Trustees of Columbia University in the City of New York, priority 2000, dated 2008)

Legend:
Assay type in all cases: cell-based, S. cerevisiae
Conditions in all cases: 1 uM small molecule, difference to activity without small molecule, average of two trials
[1] = target: T1, LexA eDHFR / B42 gly6rGR2 (UniProt P06536+P0ABQ4, C656G/F620S); assay: β-galactosidase activity assay, strain V375Y
T1 construct: rat Glucocorticoid Receptor (aa 524-795) with point mutations; expressed in transfected cells; host or cells: S. cerevisiae FY250
T1 sequence (P0ABQ4 1-159): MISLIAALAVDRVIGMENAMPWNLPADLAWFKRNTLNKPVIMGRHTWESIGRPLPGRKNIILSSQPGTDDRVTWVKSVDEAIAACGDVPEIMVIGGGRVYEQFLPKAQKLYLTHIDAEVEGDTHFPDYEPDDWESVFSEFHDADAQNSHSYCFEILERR
T1 sequence (P06536 524-795 F620S/C656G limits assumed): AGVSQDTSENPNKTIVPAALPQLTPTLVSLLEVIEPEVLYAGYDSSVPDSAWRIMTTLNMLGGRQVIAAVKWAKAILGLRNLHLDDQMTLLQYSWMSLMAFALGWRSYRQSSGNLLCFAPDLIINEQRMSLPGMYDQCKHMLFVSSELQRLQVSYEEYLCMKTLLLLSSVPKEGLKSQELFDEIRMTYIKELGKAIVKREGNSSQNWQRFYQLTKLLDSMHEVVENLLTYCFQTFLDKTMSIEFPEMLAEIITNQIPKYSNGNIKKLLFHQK
Source text: (§1) Table III explains the components of each strain. Each strain was constructed from the parent yeast strain FY250 and also contains the pMW106 plasmid, which has the LacZ reporter gene that is turned on only in when the LexA DNA binding domain and the B42 activation are brought in tot he vicinity of each other. We use several different strains because we use DHFR from two different species, mDHFR is from murine, while eDHFR is from E. coli. We are asl oable to switch the small moleculebinding domains. For example, the strain containing LexA-eDHFR with B42-rGH2 is a different strain and behaves differently from the strain containing LexA-rGR2 with B42-eDHFR. We also put in short 6 amino acid linkers between the two domains of our protein chimeras and thus these are different strain as well.
(§2) The results in Table IV are averages of two separate trials. Each strain was examined with small molecules and without small molecules. The absolute activity is given as the β-galactisidase activity […]. The average β-galactosidse activity for a strain without small molecule (i.e. the negative control) was about 100 β-galactosidase units.

[2] = target: T2, LexA eDHFR / B42 (GSG)rGR2 (UniProt P06536+P0ABQ4, C656G/F620S); assay: β-galactosidase activity assay, strain V494Y
T2 construct: rat Glucocorticoid Receptor (aa 524-795) with point mutations; expressed in transfected cells; host or cells: S. cerevisiae FY250
T2 sequence (P0ABQ4 1-159): T1 sequence (P0ABQ4 1-159)
T2 sequence (P06536 524-795 F620S/C656G limits assumed): T1 sequence (P06536 524-795 F620S/C656G limits assumed)
Source text: as §1, §2

[3] = target: T3, LexA rGR2 / B42 (GSG)2eDHFR (UniProt P06536+P0ABQ4, C656G/F620S); assay: β-galactosidase activity assay, strain V509Y
T3 construct: expressed in transfected cells; host or cells: S. cerevisiae FY250 with pMW106 lacZ reporter
T3 sequence (P06536 524-795 F620S/C656G limits assumed): T1 sequence (P06536 524-795 F620S/C656G limits assumed)
T3 sequence (P0ABQ4 1-159): T1 sequence (P0ABQ4 1-159)
Source text: as §1, §2

[4] = target: T4, LexA (GSG)2rGR2 / B42 mDHFR (UniProt P00375+P06536, C656G/F620S); assay: β-galactosidase activity assay, strain V508Y
T4 construct: expressed in transfected cells; host or cells: S. cerevisiae FY250 with pMW106 lacZ reporter
T4 sequence (P06536 524-795 F620S/C656G limits assumed): T1 sequence (P06536 524-795 F620S/C656G limits assumed)
T4 sequence (P00375 1-187): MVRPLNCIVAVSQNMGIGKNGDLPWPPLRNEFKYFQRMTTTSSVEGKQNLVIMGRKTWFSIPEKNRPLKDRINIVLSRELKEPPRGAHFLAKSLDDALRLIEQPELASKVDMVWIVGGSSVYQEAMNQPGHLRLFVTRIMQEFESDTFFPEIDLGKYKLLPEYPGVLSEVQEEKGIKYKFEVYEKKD
Source text: as §1, §2

[5] = target: T5, LexA (GSG)2rGR2 / B42 eDHFR (UniProt P06536+P0ABQ4, C656G/F620S); assay: β-galactosidase activity assay, strain V506Y
T5 construct: expressed in transfected cells; host or cells: S. cerevisiae FY250 with pMW106 lacZ reporter
T5 sequence (P06536 524-795 F620S/C656G limits assumed): T1 sequence (P06536 524-795 F620S/C656G limits assumed)
T5 sequence (P0ABQ4 1-159): T1 sequence (P0ABQ4 1-159)
Source text: as §1, §2

[6] = target: T6, LexA (GSG)2mDHFR / B42 (GSG)rGR2 (UniProt P00375+P06536, C656G/F620S); assay: β-galactosidase activity assay, strain V504Y
T6 construct: rat Glucocorticoid Receptor (aa 524-795) with point mutations; expressed in transfected cells; host or cells: S. cerevisiae FY250
T6 sequence (P00375 1-187): T4 sequence (P00375 1-187)
T6 sequence (P06536 524-795 F620S/C656G limits assumed): T1 sequence (P06536 524-795 F620S/C656G limits assumed)
Source text: as §1, §2

[7] = target: T7, LexA (GSG)2eDHFR / B42 gly6rGR2 (UniProt P06536+P0ABQ4, C656G/F620S); assay: β-galactosidase activity assay, strain V499Y
T7 construct: rat Glucocorticoid Receptor (aa 524-795) with point mutations; expressed in transfected cells; host or cells: S. cerevisiae FY250
T7 sequence (P0ABQ4 1-159): T1 sequence (P0ABQ4 1-159)
T7 sequence (P06536 524-795 F620S/C656G limits assumed): T1 sequence (P06536 524-795 F620S/C656G limits assumed)
Source text: as §1, §2

[8] = target: T8, LexA mDHFR / B42 gly6rGR2 (UniProt P00375+P06536, C656G/F620S); assay: β-galactosidase activity assay, strain V496Y
T8 construct: rat Glucocorticoid Receptor (aa 524-795) with point mutations; expressed in transfected cells; host or cells: S. cerevisiae FY250
T8 sequence (P00375 1-187): T4 sequence (P00375 1-187)
T8 sequence (P06536 524-795 F620S/C656G limits assumed): T1 sequence (P06536 524-795 F620S/C656G limits assumed)
Source text: as §1, §2

[9] = target: T9, LexA (GSG)2rGR2 / B42 (GSG)2mDHFR (UniProt P00375+P06536, C656G/F620S); assay: β-galactosidase activity assay, strain V512Y
T9 construct: rat Glucocorticoid Receptor (aa 524-795) with point mutations; expressed in transfected cells; host or cells: S. cerevisiae FY250
T9 sequence (P06536 524-795 F620S/C656G limits assumed): T1 sequence (P06536 524-795 F620S/C656G limits assumed)
T9 sequence (P00375 1-187): T4 sequence (P00375 1-187)
Source text: as §1, §2

LexA rGR2 / B42 mDHFR = target: T10, LexA rGR2 / B42 mDHFR (UniProt P00375+P06536, C656G/F620S); assay: β-galactosidase activity assay, strain V507Y
T10 construct: rat Glucocorticoid Receptor (aa 524-795) with point mutations; expressed in transfected cells; host or cells: S. cerevisiae FY250
T10 sequence (P06536 524-795 F620S/C656G limits assumed): T1 sequence (P06536 524-795 F620S/C656G limits assumed)
T10 sequence (P00375 1-187): T4 sequence (P00375 1-187)
Source text: as §1, §2

C[C@@H]1C[C@H]2C3CCC4=CC(=O)C=C[C@]4(C)[C@@]3(F)[C@@H](O)C[C@]2(C)[C@@]1(O)C(=O)NCCSCCCCCCCCSCC[C@H](NC(=O)c1ccc(N(C)Cc2cnc3nc(N)nc(N)c3n2)cc1)C(=O)O (stereo partly shown) [D8M] was tested, and the B-gal activity [1] was 5210 β-galactosidase units, the B-gal activity [2] was 10568 β-galactosidase units and the B-gal activity [3] was 2734 β-galactosidase units. The B-gal activity [4] was −5 β-galactosidase units, the B-gal activity [5] was 3867 β-galactosidase units and the B-gal activity [6] was 30 β-galactosidase units. For the same compound, the B-gal activity [7] was 7012 β-galactosidase units, the B-gal activity [8] was −27 β-galactosidase units and the B-gal activity [9] was −4 β-galactosidase units. For the same compound, the B-gal activity (LexA rGR2 / B42 mDHFR) was −6 β-galactosidase units.
